Assay results reported in patent US20250313546A1, “NUCLEIC ACID BINDERS” (UNIVERSITY OF STRATHCLYDE, priority 2022, published 2025).
Converted amounts (≈) assume the structure as drawn.

What was measured:
[1] = test system: Staphylococcus aureus (ATCC 43300); test: Antibacterial MIC, broth microdilution (CLSI); format: cell-based; conditions: for MIC80: Staphylococcus aureus, ATCC43300, read-out: MIC80 S. aureus; for S. aureus Selectivity Indices, Group / S. aureus Selectivity Index (SI): SI, IC50 (μM)/MIC80 (μM), HEK293 cytotoxicity; for S. aureus Selectivity Index (SI): numeric value
[2] = test system: Enterococcus faecalis (ATCC 51299); test: Antibacterial MIC, broth microdilution (CLSI); format: cell-based; conditions: for MIC80: Enterococcus faecalis, ATCC51299, read-out: MIC80 E. faecalis
[3] = test system: Escherichia coli (ATCC 25922); test: Antibacterial MIC, broth microdilution (CLSI); format: cell-based; conditions: Escherichia coli, ATCC25922; read-out: MIC80 E. coli
[4] = test system: T. vaginalis; test: Trichomonas resorufin assay; format: cell-based; conditions: for IC50: Trichomonas vaginalis, read-out: IC50 T. vaginalis
[5] = test system: Genomic double stranded DNA (salmon); test: Fluorescence intercalator displacement (FID) assay, SYBR-safe probe; conditions: 20 μM compound, 30° C., lower % = stronger binding
Outline: (§1)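 Compound at 20 μM mixed with 3.76 ng/mL polyAU dsRNA or salmon genomic dsDNA and 12500-fold diluted SybrSafe in 1 mM phosphate buffer pH 7.4, then heated to 30 °C and fluorescence read. Reduction is expressed as normalised %, with nucleic acid plus probe as maximum and probe alone as minimum.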

[6] = test system: PolyAU double stranded RNA; test: as above; conditions: 20 μM compound, 30° C., lower % = stronger binding
Outline: as §1

[7] = test system: C. neoformans (F10025); conditions: Cryptococcus neoformans, read-out: MIC99 C. neoformans
Experimental: (§2) The Minimum Inhibitory Concentration (MIC, at 99% inhibition) of the compounds was determined using the broth microdilution method as recommended by EUCAST (EUCAST Definitive Document E.DEF 9.3.2, Method for the determination of broth dilution minimum inhibitory concentrations of antifungal agents for conidia forming moulds and EUCAST Definitive Document E.DEF 7.3.2 Method for the determination of broth dilution minimum inhibitory concentrations of antifungal agents for yeasts).

[8] = test system: A. fumigatus A1160 (MFIG001); conditions: Aspergillus fumigatus, read-out: MIC99 A. fumigatus A1160
[9] = test system: Rhizopus arrhizus (NEQAS12.35321); conditions: read-out: MIC99 Rhizopus arrhizus
[10] = test system: Candida auris (H.17.157); conditions: Candidozyma auris, read-out: MIC99 Candida auris
Experimental: as §2

[11] = test system: Candida glabrata (ACPF3309); conditions: Nakaseomyces glabratus, read-out: MIC99 Candida glabrata
Experimental: as §2

[12] = SI, IC50 (μM)/MIC80 (μM), HEK293 cytotoxicity, Alkyl Amidines and NH Pyrroles
[13] = SI, IC50 (μM)/IC50 (μM), HEK293 cytotoxicity, Alkyl Amidines and NH Pyrroles

Compound	MIC80 [1]	E. faecalis Selectivity Indices, Group [2, 12]	MIC80 [3]	T. vaginalis Selectivity Indices, Group [4, 13]	T. vaginalis Selectivity Index (SI) ([4]; SI, IC50 (μM)/IC50 (μM), HEK293 cytotoxicity, numeric value)	% Normalised Fluorescence with gDNA [5]	% Normalised Fluorescence with polyAU RNA [6]	MIC99 [7]	MIC99 [8]	MIC99 [9]	MIC99 [10]	MIC99 [11]	S. aureus Selectivity Indices, Group ([1]; Alkyl Amidines and NH Pyrroles)	MIC80 [2]	IC50 [4]	S. aureus Selectivity Index (SI) [1]	S. aureus Selectivity Indices, Group ([1]; Quaternary ammoniums)	E. faecalis Selectivity Indices, Group ([2]; SI, IC50 (μM)/MIC80 (μM), HEK293 cytotoxicity, Quaternary ammoniums)	E. faecalis Selectivity Index (SI) ([2]; SI, IC50 (μM)/MIC80 (μM), HEK293 cytotoxicity, numeric value)	T. vaginalis Selectivity Indices, Group ([4]; SI, IC50 (μM)/IC50 (μM), HEK293 cytotoxicity, Quaternary ammoniums)
CCNC(=N)CCNC(=O)c1cc(NC(=O)c2cc(NC(=O)c3ccc(/C=C/c4ccc(OC)cc4)nc3)cn2C)cn1C [Ia24, (E)-N-(5-((5-((3-(ethylamino)-3-iminopropyl)carbamoyl)-1-methyl-1H-pyrrol-3-yl)carbamoyl)-1-methyl-1H-pyrrol-3-yl)-6-(4-methoxystyryl)nicotinamide]	< 5 µM	C (Group C: 5 < SI <= 10)	> 100 µM	D (Group D: SI > 32)	69	1%	4%	5 to 25 µg/mL (≈ 8.38 to 41.9 µM)	25 to 50 µg/mL (≈ 41.9 to 83.8 µM)	> 50 µg/mL	> 50 µg/mL	5 to 25 µg/mL (≈ 8.38 to 41.9 µM)								
[H]/N=C(\CCNC(=O)c1cc(NC(=O)c2cc(NC(=O)c3ccc(C=Cc4ccc(N(C)C)cc4)nc3)cn2C)cn1C)NCCCCCCCCC [Ia32, (E)-6-(4-(dimethylamino)styryl)-N-(5-((5-((3-imino-3-(nonylamino)propyl)carbamoyl)-1-methyl-1H-pyrrol-3-yl)carbamoyl)-1-methyl-1H-pyrrol-3-yl)nicotinamide]	< 5 µM		> 100 µM			67%	23%	5 to 25 µg/mL (≈ 7.06 to 35.3 µM)	> 50 µg/mL	> 50 µg/mL	> 50 µg/mL	5 to 25 µg/mL (≈ 7.06 to 35.3 µM)	C (Group C: 5 < SI <= 10)	> 100 µM	> 50 µM					
CCCCNC(=N)CCNC(=O)c1cc(NC(=O)c2cc(NC(=O)c3ccc(/C=C/c4cnc5ccccc5c4)cc3)cn2C)cn1C [Ia34, (E)-N-(3-(butylamino)-3-iminopropyl)-1-methyl-4-(1-methyl-4-(4-(2-(quinolin-3-yl)vinyl)benzamido)-1H-pyrrole-2-carboxamido)-1H-pyrrole-2-carboxamide]	< 5 µM		> 100 µM			7%	6%	25 to 50 µg/mL (≈ 38.8 to 77.5 µM)	> 50 µg/mL	> 50 µg/mL	> 50 µg/mL	5 to 25 µg/mL (≈ 7.75 to 38.8 µM)	D (D: SI > 10)	5 to 25 µM (≈ 3.22 to 16.1 µg/mL)	1 to 5 µM	15				
[H]/N=C(\CCNC(=O)c1cc(NC(=O)c2cc(NC(=O)c3ccc(C=Cc4ccc5nonc5c4)cc3)cn2C)cn1C)NCCC1CCOCC1 [Ia45, (E)-4-(4-(2-(benzo[c][1,2,5]oxadiazol-5-yl)vinyl)benzamido)-N-(5-((3-imino-3-((2-(tetrahydro-2H-pyran-4-yl)ethyl)amino)propyl)carbamoyl)-1-methyl-1H-pyrrol-3-yl)-1-methyl-1H-pyrrole-2-carboxamide]	5 to 25 µM (≈ 3.46 to 17.3 µg/mL)		> 100 µM			9%	3%	5 to 25 µg/mL (≈ 7.23 to 36.1 µM)	> 50 µg/mL			25 to 50 µg/mL (≈ 36.1 to 72.3 µM)	B (Group B: 3 < SI <= 5)	> 100 µM	5 to 50 µM					
CN1CCN(C(=N)CCNC(=O)c2cc(NC(=O)c3cc(NC(=O)c4ccc(/C=C/c5cnc6ccccc6c5)cc4)cn3C)cn2C)CC1 [Ib3, (E)-N-(3-imino-3-(4-methylpiperazin-1-yl)propyl)-1-methyl-4-(1-methyl-4-(4-(2-(quinolin-3-yl)vinyl)benzamido)-1H-pyrrole-2-carboxamido)-1H-pyrrole-2-carboxamide]	< 5 µM		> 100 µM			13%	5%	5 to 25 µg/mL (≈ 7.44 to 37.2 µM)	> 50 µg/mL			5 to 25 µg/mL (≈ 7.44 to 37.2 µM)	B (Group B: 3 < SI <= 5)	5 to 25 µM (≈ 3.36 to 16.8 µg/mL)	5 to 50 µM					
Cn1cc(NC(=O)c2cc(NC(=O)c3ccc(/C=C/c4cnc5ccccc5c4)cc3)cn2C)cc1C(=O)NCCC(=N)N1CCOCC1 [Ib5, (E)-N-(3-imino-3-morpholinopropyl)-1-methyl-4-(1-methyl-4-(4-(2-(quinolin-3-yl)vinyl)benzamido)-1H-pyrrole-2-carboxamido)-1H-pyrrole-2-carboxamide]	< 5 µM	C (Group C: 5 < SI <= 10)	> 100 µM	C (Group C: 16 < SI <= 32)		22%	13%	5 to 25 µg/mL (≈ 7.59 to 37.9 µM)	5 to 25 µg/mL (≈ 7.59 to 37.9 µM)	25 to 50 µg/mL (≈ 37.9 to 75.9 µM)		< 5 µg/mL	D (D: SI > 10)	< 5 µM	1 to 5 µM	27				
[H]/N=C(\CCNC(=O)c1cc(NC(=O)c2cc(NC(=O)c3ccc(C=Cc4ccc5nonc5c4)cc3)cn2C)cn1C)N1CCOCC1 [Ib6, (E)-4-(4-(2-(benzo[c][1,2,5]oxadiazol-5-yl)vinyl)benzamido)-N-(5-((3-imino-3-morpholinopropyl)carbamoyl)-1-methyl-1H-pyrrol-3-yl)-1-methyl-1H-pyrrole-2-carboxamide]	5 to 25 µM (≈ 3.25 to 16.2 µg/mL)		> 100 µM			11%	49%	25 to 50 µg/mL (≈ 38.5 to 77 µM)		5 to 25 µg/mL (≈ 7.7 to 38.5 µM)		25 to 50 µg/mL (≈ 38.5 to 77 µM)		25 to 100 µM (≈ 16.2 to 65 µg/mL)	> 50 µM					
[H]/N=C(\CCNC(=O)c1cc(NC(=O)c2cc(NC(=O)c3ccc(C=Cc4ccc5nonc5c4)cc3)cn2C)cn1C)N1CCSCC1 [Ib8, (E)-4-(4-(2-(benzo[c][1,2,5]oxadiazol-5-yl)vinyl)benzamido)-N-(5-((3-imino-3-thiomorpholinopropyl)carbamoyl)-1-methyl-1H-pyrrol-3-yl)-1-methyl-1H-pyrrole-2-carboxamide]	< 5 µM		> 100 µM			15%	4%	5 to 25 µg/mL (≈ 7.51 to 37.5 µM)	5 to 25 µg/mL (≈ 7.51 to 37.5 µM)	5 to 25 µg/mL (≈ 7.51 to 37.5 µM)		< 5 µg/mL		< 5 µM	1 to 5 µM					
COCCOCC[N+](C)(C)CCNC(=O)c1cc(NC(=O)c2cc(NC(=O)c3ccc(/C=C/c4cnc5ccccc5c4)cc3)cn2C)cn1C [Ic18, (E)-2-(2-methoxyethoxy)-N,N-dimethyl-N-(2-(1-methyl-4-(1-methyl-4-(4-(2-(quinolin-3-yl)vinyl)benzamido)-1H-pyrrole-2-carboxamido)-1H-pyrrole-2-carboxamido)ethyl)ethan-1-aminium]	< 5 µM		> 100 µM					5 to 25 µg/mL	> 50 µg/mL	25 to 50 µg/mL	> 50 µg/mL	< 5 µg/mL		< 5 µM	1 to 5 µM		C (Group C: 5 < SI <= 10)	D (Group D: SI > 5)	5.1	C (Group C: 1.5 < SI <= 3)
